Experiments:
[1] = Solubility of dye in aqueous medium (test tube, visual appearance); type: physicochemical
Description: The dye tested is Astrazon Orange R (or Basic Orange 22).
In a first trial, an aqueous solution comprising 0.04% of dye is added to a test tube.
In a second trial, a solution comprising 0.04% of dye, followed by 0.05% by weight of a poly(sodium acrylate-b-acrylamide) diblock copolymer (copolymer of Example 2), are added to a test tube. […] This thus attests to the ability of the block polymers in accordance with the invention to increase the solubility of dyes that are difficult to solubilize in an aqueous medium.

[2] = Stability of dye in alkaline oxidizing medium (test tube, visual coloration); type: physicochemical; conditions: ammoniacal solution
Description: The dye tested is Basic Red 76.
In a first trial, an ammoniacal solution at 0.04% by weight of dye at pH=9 was added to a test tube and the solution was left to stand for 1 hour.
In a second trial, an ammoniacal solution at 0.04% by weight of dye at pH=9 was added to a test tube in the presence of a poly(sodium acrylate-b-acrylamide) diblock copolymer, in which each block has, respectively, a number-average molecular mass of 5000 and 30 000, and in the presence of aqueous hydrogen peroxide at 3%, and the mixture is left to stand for 1 hour.

appearance of aqueous solution, with block copolymer ([1]; 0.04% of dye plus 0.05% by weight poly(sodium acrylate-b-acrylamide) diblock copolymer)	appearance of aqueous solution, dye alone ([1]; aqueous solution, 0.04% of dye, no copolymer)	coloration of the solution after standing 1 hour, dye alone ([2]; 0.04% by weight of dye, pH 9, no copolymer)	coloration of the solution after standing 1 hour, with block copolymer ([2]; 0.04% dye, pH 9, with poly(sodium acrylate-b-acrylamide) diblock copolymer (5000/30 000) and 3% aqueous hydrogen peroxide)	Molecule
clear solution	cloudy appearance	–	–	Astrazon Orange R
–	–	visible loss of coloration	remains stable	COc1ccccc1N=Nc1c(O)ccc2ccc([N+](C)(C)C)cc12.[Cl-] [Basic Red 76]

Source: patent US20060130244A1, “Aqueous composition for dyeing keratin fibres comprising a dye and a specific block copolymer” (priority 2004, published 2006)
